Test results published in patent US9096591B2, “Tetracyclic compounds” (Medivation Technologies, Inc., priority 2007, dated 2015).
Read-outs that look alike come from different tables or passages of the source.

Legend:
[1] = molecular target: T1, human recombinant dopamine D2L receptor (Homo sapiens, UniProt P14416); experiment: Dopamine D2L radioligand binding ([3H]Spiperone); details: percent inhibition of specific binding
T1 construct: expressed in transfected cells; host or cells: CHO cells
Experimental: (§1) Non-specific binding was estimated in the presence of 10 μM Haloperidol. Receptor proteins were filtered and washed, the filters were then counted to determine [^3H]Spiperone specifically bound. […] Biochemical assay results are presented as the percent inhibition of specific binding in Table 6.

[2] = molecular target: T2, human recombinant adrenergic α1D receptor (Homo sapiens, UniProt P25100); experiment: Adrenergic α1D radioligand binding ([3H]Prozosin); set-up: Inhibition of ligand binding, Adren. alpha1D: concentration or dose not given beside the values; details: percent inhibition of specific binding
T2 construct: expressed in transfected cells; host or cells: HEK-293 cells
T2 sequence (P25100 1-572): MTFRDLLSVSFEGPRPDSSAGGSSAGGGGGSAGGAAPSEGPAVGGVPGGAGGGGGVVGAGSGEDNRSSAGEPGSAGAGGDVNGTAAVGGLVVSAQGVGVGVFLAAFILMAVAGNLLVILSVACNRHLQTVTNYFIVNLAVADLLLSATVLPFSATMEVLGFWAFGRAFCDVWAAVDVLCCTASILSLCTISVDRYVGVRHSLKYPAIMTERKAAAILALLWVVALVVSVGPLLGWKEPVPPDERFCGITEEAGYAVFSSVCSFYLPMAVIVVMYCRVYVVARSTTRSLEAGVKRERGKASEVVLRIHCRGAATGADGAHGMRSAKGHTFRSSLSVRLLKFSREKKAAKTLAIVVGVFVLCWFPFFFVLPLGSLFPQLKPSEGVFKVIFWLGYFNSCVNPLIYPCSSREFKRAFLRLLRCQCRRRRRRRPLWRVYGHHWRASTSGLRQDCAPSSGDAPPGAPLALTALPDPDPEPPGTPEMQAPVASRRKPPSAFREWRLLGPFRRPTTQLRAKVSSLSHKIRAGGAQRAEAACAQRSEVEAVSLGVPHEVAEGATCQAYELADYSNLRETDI
Experimental: as §1, with “Compounds of invention were incubated with 0.6 nM [^3H]Prozosin for 60 minutes at 25° C. Non-specific” for “Non-specific”, “phentolamine.” for “Haloperidol.”, “[^3H]Prozosin” for “[^3H]Spiperone”

[3] = molecular target: T3, human recombinant histamine H2 receptor (Homo sapiens, UniProt P25021); experiment: Histamine H2 radioligand binding ([125I]Aminopotentidine); details: for inhibition at 0.1 µM: 0.1 μM compound; for inhibition at 0.3 µM: 0.3 μM compound
T3 construct: expressed in transfected cells; host or cells: CHO-K1 cells
Experimental: Non-specific binding was estimated in the presence of 3 μM Tiotidine. […] Biochemical assay results are presented as the percent inhibition of specific binding in Table 5.
Non-specific binding was estimated in the presence of 3 μM Tiotidine. […] Compounds were screened at 1 μM, using 1% DMSO as vehicle. Biochemical assay results are presented as the percent inhibition of specific binding in Table 6.

[4] = molecular target: T4, human recombinant adrenergic α2B receptor (Homo sapiens, UniProt P18089); experiment: Adrenergic α2B radioligand binding ([3H]Rauwolscine); set-up: Inhibition of ligand binding, Adren. alpha2B: concentration or dose not given beside the values; details: percent inhibition of specific binding
T4 construct: expressed in transfected cells; host or cells: CHO-K1 cells
T4 sequence (P18089 1-450): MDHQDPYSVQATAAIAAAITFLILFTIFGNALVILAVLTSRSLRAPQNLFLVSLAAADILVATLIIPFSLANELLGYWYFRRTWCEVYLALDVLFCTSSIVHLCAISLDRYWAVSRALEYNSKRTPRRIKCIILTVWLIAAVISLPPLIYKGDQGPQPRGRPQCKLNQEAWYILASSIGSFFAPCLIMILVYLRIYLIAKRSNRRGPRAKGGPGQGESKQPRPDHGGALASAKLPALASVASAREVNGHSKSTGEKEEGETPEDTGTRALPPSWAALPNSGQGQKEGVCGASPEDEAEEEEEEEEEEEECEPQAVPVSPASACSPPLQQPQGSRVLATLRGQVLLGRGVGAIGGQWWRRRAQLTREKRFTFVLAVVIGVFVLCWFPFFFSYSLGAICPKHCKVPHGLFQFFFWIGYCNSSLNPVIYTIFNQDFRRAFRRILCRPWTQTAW
Experimental: To evaluate in radioligand binding assays the activity of compounds of the invention, human recombinant adrenergic α2B receptor expressed in Chinese hamster ovary (CHO-K1) cells (Uhlen S et al. Eur J. Pharmacol. 343(1):93, 1998) in a modified Tris-HCl buffer (50 mM Tris-HCl, pH 7.4, 12.5 mM MgCl2, 1 mM EDTA, 0.2% BSA) was used. Compounds of the invention were incubated with 2.5 nM [^3H]Rauwolscine for 60 minutes at 25° C. Non-specific binding was estimated in the presence of 10 μM Prozosin. Receptor proteins were filtered and washed, the filters were then counted to determine [^3H]Rauwolscine specifically bound. […] Biochemical assay results are presented as the percent inhibition of specific binding in Table 6.

[5] = 0.1 nM [125I]Aminopotentidine, read-out: Histamine Binding H2, percent inhibition of specific binding
[6] = 1 μM compound, 0.1 nM [125I]Aminopotentidine, read-out: Histamine Binding H2, percent inhibition of specific binding
[7] = percent inhibition of specific binding, screened at 1 μM, read-out: Inhibition of ligand binding, Hist. H2

T1 sequence (P14416 whole entry): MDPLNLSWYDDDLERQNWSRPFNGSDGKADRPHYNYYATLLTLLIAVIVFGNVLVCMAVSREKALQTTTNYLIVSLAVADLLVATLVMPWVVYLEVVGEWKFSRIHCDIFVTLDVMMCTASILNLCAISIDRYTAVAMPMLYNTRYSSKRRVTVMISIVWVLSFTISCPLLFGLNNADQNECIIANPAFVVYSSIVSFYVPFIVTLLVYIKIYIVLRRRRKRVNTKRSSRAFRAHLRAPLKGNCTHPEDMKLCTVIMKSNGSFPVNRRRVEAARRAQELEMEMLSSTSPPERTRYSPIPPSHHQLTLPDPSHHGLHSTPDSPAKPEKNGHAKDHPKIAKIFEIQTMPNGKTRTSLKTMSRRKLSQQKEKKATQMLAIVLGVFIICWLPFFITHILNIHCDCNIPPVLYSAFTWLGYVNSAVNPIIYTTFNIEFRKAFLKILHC
T3 sequence (P25021 whole entry): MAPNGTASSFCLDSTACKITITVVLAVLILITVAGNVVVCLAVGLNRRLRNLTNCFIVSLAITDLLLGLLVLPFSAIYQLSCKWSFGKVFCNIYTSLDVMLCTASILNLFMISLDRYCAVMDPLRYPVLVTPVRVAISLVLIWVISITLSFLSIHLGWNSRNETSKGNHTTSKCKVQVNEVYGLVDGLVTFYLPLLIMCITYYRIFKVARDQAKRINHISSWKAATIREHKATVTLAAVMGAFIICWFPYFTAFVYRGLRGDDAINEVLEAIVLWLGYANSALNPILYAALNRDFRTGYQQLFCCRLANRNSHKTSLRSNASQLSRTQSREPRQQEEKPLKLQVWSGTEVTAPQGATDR

Inhibition of ligand binding, Dop. D2L [1] [%] | Inhibition of ligand binding, Adren. alpha1D [2] [%] | inhibition at 1 µM [3, 6] [%] | inhibition at 1 µM [3, 7] [%] | Inhibition of ligand binding, Adren. alpha2B [4] [%] | SMILES | inhibition at 0.1 µM [3, 5] [%] | inhibition at 0.3 µM [3, 5] [%]
87 | 94 | 72 | 87 | 108 | Cc1ccc2c(c1)c1c(n2CCc2ccccc2)CCN(C)C1 [Compound 20, 2,3,4,5-tetrahydro-2,8-dimethyl-5-phenethyl-1H-pyrido[4,3-b]indole] | 33 | 51
1 | 10 | 17 | 17 | 9 | CN1CCc2c(c3cc(Cl)ccc3n2CC(=O)N2CCCCC2)C1 [Compound 236, 2-(8-chloro-1,2,3,4-tetrahydro-2-methylpyrido[4,3-b]indol-5-yl)-1-(piperidin-1-yl)ethanone] |  | 
−1 | 14 | 24 | 24 | 12 | CC1CCN(C(=O)Cn2c3c(c4cc(Cl)ccc42)CN(C)CC3)CC1 [Compound 237, 2-(8-chloro-1,2,3,4-tetrahydro-2-methylpyrido[4,3-b]indol-5-yl)-1-(4-methylpiperidin-1-yl)ethanone] |  | 
−1 | 2 | 6 | 6 | 14 | CN1CCc2c(c3cc(Cl)ccc3n2CC(=O)N2CCOCC2)C1 [Compound 238, 2-(8-chloro-1,2,3,4-tetrahydro-2-methylpyrido[4,3-b]indol-5-yl)-1-morpholinoethanone] |  | 
−1 | 3 | 10 | 10 | 24 | CN1CCc2c(c3cc(Cl)ccc3n2CC(=O)N2CCSCC2)C1 [Compound 239, 2-(8-chloro-1,2,3,4-tetrahydro-2-methylpyrido[4,3-b]indol-5-yl)-1-thiomorpholinoethanone] |  | 
9 | 42 | 23 | 23 | 50 | CN1CCc2c(c3cc(Cl)ccc3n2CCC(=O)N2CCCC2)C1 [Compound 240, 3-(8-chloro-1,2,3,4-tetrahydro-2-methylpyrido[4,3-b]indol-5-yl)-1-(pyrrolidin-1-yl)propan-1-one] |  | 
8 | 8 | 17 | 17 | 6 | CN1CCc2c(c3cc(Cl)ccc3n2CC(=O)N2CCCC2)C1 [Compound 243, 2-(8-chloro-1,2,3,4-tetrahydro-2-methylpyrido[4,3-b]indol-5-yl)-1-(pyrrolidin-1-yl)ethanone] |  | 
6 | 12 | 10 | 10 | 13 | CN1CCc2c(c3cc(Cl)ccc3n2CC(=O)N2CCNCC2)C1 [Compound 244] |  | 
1 | 12 | 16 | 16 | 11 | CN1CCc2c(c3cc(Cl)ccc3n2CC(=O)N2CCNC(=O)C2)C1 [Compound 246] |  | 

Continued, compound first:

SMILES | Inhibition of ligand binding, Dop. D2L [1] [%] | Inhibition of ligand binding, Adren. alpha1D [2] [%] | inhibition at 1 µM [3, 6] [%] | inhibition at 1 µM [3, 7] [%] | Inhibition of ligand binding, Adren. alpha2B [4] [%] | inhibition at 0.1 µM [3, 5] [%] | inhibition at 0.3 µM [3, 5] [%]
Cc1ccc2c(c1)c1c(n2CCc2ccccn2)CCN(C)C1 [Compound 21, 2,3,4,5-tetrahydro-2,8-dimethyl-5-(2-(pyridin-2-yl)ethyl)-1H-pyrido[4,3-b]indole] |  | 76 | 45 | 45 | 114 |  | 
Cc1ccc(CCn2c3c(c4cc(C)ccc42)CN(C)CC3)cc1 [Compound 25, 2,3,4,5-tetrahydro-2,8-dimethyl-5-(4-methylphenethyl)-1H-pyrido[4,3-b]indole] | 94 |  | 96 | 96 | 108 | 54 | 75
CCN1CCc2c(c3cc(C)ccc3n2CCc2ccncc2)C1 [Compound 27, 2-ethyl-2,3,4,5-tetrahydro-8-methyl-5-(2-(pyridin-4-yl)ethyl)-1H-pyrido[4,3-b]indole] |  | 63 | 32 | 32 | 100 |  | 
Cc1ccc2c(c1)c1c(n2CCc2ccc(C)nc2)CCNC1 [Compound 230, 2,3,4,5-tetrahydro-8-methyl-5-(2-(6-methylpyridin-3-yl)ethyl)-1H-pyrido[4,3-b]indole] |  | 75 | 6 | 30 | 104 |  | 
CC1CN(C(=O)Cn2c3c(c4cc(Cl)ccc42)CN(C)CC3)CC(C)N1 (stereo not drawn) [Compound 245] | 4 | 1 | 8 | 8 | 19 |  | 
COc1ccc(CCn2c3c(c4cc(C)ccc42)CN(C)CC3)cc1 [Compound 247] | 87 | 95 | 97 | 97 | 103 |  | 
Cc1ccc2c(c1)c1c(n2CCc2ccc(CO)nc2)CCN(C)C1 [Compound 267] | 21 | 92 |  | 42 | 100 |  | 
CCOC(=O)c1ccc(CCn2c3c(c4cc(C)ccc42)CN(C)CC3)cn1 [Compound 275, ethyl 5-(2-(1,2,3,4-tetrahydro-2,8-dimethylpyrido[4,3-b]indol-5-yl)ethyl)pyridine-2-carboxylate] | 4 | 87 |  | 20 | 92 |  | 
CN1CCc2c(c3cc(Cl)ccc3n2CC(=O)N2CCS(=O)(=O)CC2)C1 [Compound 295] | −7 | 4 |  | 10 | 18 |  | 
